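These data come from cells grown in 96-well plates and exposed to compound for 48 hours at five concentrations. The concentration for 50% growth inhibition is given as GI50. TGI: total growth inhibition.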
Assays:
Test in all cases: NCI tumour cell line growth inhibition, 48 h
SNB-78 CNS = system: SNB-78 CNS
P388 leukemia = system: P388 leukemia
KM20L2 colon = system: KM20L2 colon
HOP-62 NSCLC = system: HOP-62 NSCLC
HCC-2998 colon = system: HCC-2998 colon
CAKI-1 renal = system: CAKI-1 renal
SW-620 colon = system: SW-620 colon
CCRF-CEM leukemia = system: CCRF-CEM leukemia
XF 498 CNS = system: XF 498 CNS
SN12C renal = system: SN12C renal
RXF 393 renal = system: RXF 393 renal
SK-MEL-2 melanoma = system: SK-MEL-2 melanoma
UO-31 renal = system: UO-31 renal
M19-MEL melanoma = system: M19-MEL melanoma
K-562 leukemia = system: K-562 leukemia
SF-295 CNS = system: SF-295 CNS
SK-MEL-5 melanoma = system: SK-MEL-5 melanoma
HOP-92 NSCLC = system: HOP-92 NSCLC
SK-MEL-28 melanoma = system: SK-MEL-28 melanoma
NCI-H522 lung = system: NCI-H522 lung
SNB-75 CNS = system: SNB-75 CNS
SF-268 CNS = system: SF-268 CNS
OVCAR-3 ovarian = system: OVCAR-3 ovarian
HL-60(TB) leukemia = system: HL-60(TB) leukemia
DMS 114 small cell lung = system: DMS 114 small cell lung
EKVX NSCLC = system: EKVX NSCLC
U251 CNS = system: U251 CNS
OVCAR-8 ovarian = system: OVCAR-8 ovarian
HCT-15 colon = system: HCT-15 colon
DLD-1 colon = system: DLD-1 colon
MOLT-4 leukemia = system: MOLT-4 leukemia
RPMI-8226 leukemia = system: RPMI-8226 leukemia
NCI-H460 lung = system: NCI-H460 lung
A549 NSCLC = system: A549 NSCLC
SNB-19 CNS = system: SNB-19 CNS
NCI/ADR-RES ovarian = system: NCI/ADR-RES ovarian
NCI-H226 lung = system: NCI-H226 lung
SN12K1 renal = system: SN12K1 renal
SF-539 CNS = system: SF-539 CNS
IGROV1 ovarian = system: IGROV1 ovarian
MCF7 breast = system: MCF7 breast
SK-OV-3 ovarian = system: SK-OV-3 ovarian
HOP-18 NSCLC = system: HOP-18 NSCLC
DMS 273 small cell lung = system: DMS 273 small cell lung
A498 renal = system: A498 renal
KM12 colon = system: KM12 colon
NCI-H23 lung = system: NCI-H23 lung
OVCAR-5 ovarian = system: OVCAR-5 ovarian
LOX IMVI melanoma = system: LOX IMVI melanoma
OVCAR-4 ovarian = system: OVCAR-4 ovarian
MALME-3M melanoma = system: MALME-3M melanoma
HCT-116 colon = system: HCT-116 colon
P388/ADR leukemia = system: P388/ADR leukemia
UACC-62 melanoma = system: UACC-62 melanoma
HT29 colon = system: HT29 colon
COLO 205 colon = system: COLO 205 colon
UACC-257 melanoma = system: UACC-257 melanoma

SMILES: CCc1c2c(nc3ccc(OC(=O)N4CCC(N5CCCCC5)CC4)cc13)-c1cc3c(c(=O)n1C2)COC(=O)[C@]3(O)CC
- GI50 (SNB-78 CNS): 53.7 µM
- TGI (SNB-78 CNS): > 100 µM
- GI50 (P388 leukemia): 10.1 µM
- TGI (P388 leukemia): 40.2 µM
- GI50 (KM20L2 colon): 17.2 µM
- TGI (KM20L2 colon): 66.3 µM

SMILES: CCOC(=O)/C(O)=C1\C(=O)N(C)C(=O)C1c1cccc(OC)c1 (stereo not drawn)
- TGI (HOP-62 NSCLC): > 100 µM
- TGI (HCC-2998 colon): > 100 µM
- TGI (CAKI-1 renal): > 100 µM
- TGI (SW-620 colon): > 100 µM
- TGI (CCRF-CEM leukemia): > 100 µM
- TGI (XF 498 CNS): > 100 µM
- TGI (SN12C renal): > 100 µM
- TGI (RXF 393 renal): > 100 µM
- TGI (SK-MEL-2 melanoma): > 100 µM
- TGI (UO-31 renal): > 100 µM
- TGI (M19-MEL melanoma): > 100 µM
- TGI (K-562 leukemia): > 100 µM
- TGI (SNB-78 CNS): > 100 µM
- TGI (SF-295 CNS): > 100 µM
- TGI (SK-MEL-5 melanoma): > 100 µM
- TGI (HOP-92 NSCLC): > 100 µM
- TGI (SK-MEL-28 melanoma): > 100 µM
- TGI (NCI-H522 lung): > 100 µM
- TGI (SNB-75 CNS): > 100 µM
- TGI (SF-268 CNS): > 100 µM
- TGI (OVCAR-3 ovarian): > 82.1 µM
- TGI (HL-60(TB) leukemia): > 100 µM
- TGI (DMS 114 small cell lung): > 100 µM
- TGI (EKVX NSCLC): > 100 µM
- TGI (U251 CNS): > 100 µM
- TGI (P388 leukemia): > 100 µM
- TGI (OVCAR-8 ovarian): > 100 µM
- TGI (HCT-15 colon): > 100 µM
- TGI (DLD-1 colon): > 100 µM
- TGI (MOLT-4 leukemia): > 100 µM
- TGI (RPMI-8226 leukemia): > 100 µM
- TGI (NCI-H460 lung): > 100 µM
- TGI (A549 NSCLC): > 100 µM
- TGI (SNB-19 CNS): > 100 µM
- TGI (NCI/ADR-RES ovarian): > 100 µM
- TGI (NCI-H226 lung): > 100 µM
- TGI (KM20L2 colon): > 100 µM
- TGI (SN12K1 renal): > 100 µM
- TGI (SF-539 CNS): > 100 µM
- TGI (IGROV1 ovarian): > 100 µM
- TGI (MCF7 breast): > 100 µM
- TGI (SK-OV-3 ovarian): > 100 µM
- TGI (HOP-18 NSCLC): > 100 µM
- TGI (DMS 273 small cell lung): > 100 µM
- TGI (A498 renal): > 100 µM
- TGI (KM12 colon): > 100 µM
- TGI (NCI-H23 lung): > 100 µM
- TGI (OVCAR-5 ovarian): > 100 µM
- TGI (LOX IMVI melanoma): > 100 µM
- TGI (OVCAR-4 ovarian): > 100 µM
- TGI (MALME-3M melanoma): > 100 µM
- TGI (HCT-116 colon): > 100 µM
- TGI (P388/ADR leukemia): > 100 µM
- TGI (UACC-62 melanoma): > 100 µM
- TGI (HT29 colon): > 100 µM
- TGI (COLO 205 colon): > 100 µM
- TGI (UACC-257 melanoma): > 100 µM

Reference: PubChem BioAssay (NCI)
